For this test, the system named is HIV-1 IIIB. The test can be described thus: HOS HIV-1 infectivity assay. The format is cell-based. The following applies: Human immunodeficiency virus 1, IIIB; as determined by the infectivity assay; strain not stated in Table 2; read-out: Activity Level. In outline: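 HOS cells expressing hCXCR4/hCCR5/hCD4 and an HIV-LTR-luciferase reporter, in DMEM with 2% FCS, were pre-treated with compound for 1 h, then infected with HIV-1 IIIB (~2 million RLU/well) for 96 h at 37° C. Infection was read by Steady-Glo luciferase; cytotoxicity in uninfected cultures by CellTiter-Glo.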

On to `CN(C)CCCn1ccnc1CN(C)C1CCCc2cccnc21` (stereo not drawn) [Example 38, N-({1-[3-(Dimethylamino)propyl]-1H-imidazol-2-yl}methyl)-N-methyl-5,6,7,8-tetrahydro-8-quinolinamine], for which the IC50 lay in the range of 500 to 10000 nM.

As to `CN(Cc1nc2ccccc2n1C[C@H]1CCCN(CCCO)C1)[C@H]1CCCc2cccnc21` [Example 47, 3-((3S)-3-{[2-({Methyl[(8S)-5,6,7,8-tetrahydro-8-quinolinyl]amino}methyl)-1H-benzimidazol-1-yl]methyl}1-piperidinyl)-1-propanol], the IC50 is less than 100 nM.

Turning to `CC(C)CCN1CCC[C@@H](Cn2c(CN(C)[C@@H]3CCCc4cccnc43)nc3ccccc32)C1` [Example 78, (8R)—N-Methyl-N-[(1-{[(3R)-1-(3-methylbutyl)-3-piperidinyl]methyl}-1H-benzimidazol-2-yl)methyl]-5,6,7,8-tetrahydro-8-quinolinamine], the IC50 lay in the range of 100 to 500 nM.

Take `CC(C)CCN(Cc1nc2ccccc2n1CC(C)(C)CN(C)C)C1CCCc2cccnc21` (stereo not drawn) [Example 66, N-({1-[3-(Dimethylamino)-2,2-dimethylpropyl]-1H-benzimidazol-2-yl}methyl)-N-(3-methylbutyl)-5,6,7,8-tetrahydro-8-quinolinamine]: the IC50 is 500 to 10000 nM.

Consider `CN(Cc1nc2ccccc2n1C[C@H]1CCCN(Cc2ccccc2)C1)[C@H]1CCCc2cccnc21` [Example 43, (8S)—N-Methyl-N-[(1-{[(3S)-1-(phenylmethyl)-3-piperidinyl]methyl}-1H-benzimidazol-2-yl)methyl]-5,6,7,8-tetrahydro-8-quinolinamine], for which the IC50 is less than 100 nM.

For the compound `CN(Cc1nc2ccccc2n1CC(C)(C)CNC(=N)N)C1CCCc2cccnc21` (stereo not drawn) [Example 68, N-[2,2-Dimethyl-3-(2-{[methyl(5,6,7,8-tetrahydro-8-quinolinyl)amino]methyl}-1H-benzimidazol-1-yl)propyl]guanidine], the IC50 is less than 100 nM.

As for `CN(Cc1nc2ccccc2n1CC(=O)N1CCNCC1)C1CCCc2cccnc21` (stereo not drawn) [Example 32, N-Methyl-N-({1-[2-oxo-2-(1-piperazinyl)ethyl]-1H-benzimidazol-2-yl}methyl)-5,6,7,8-tetrahydro-8-quinolinamine], the IC50 fell in the range of 500 to 10000 nM.

Turning to `CN(Cc1nc2ccccc2n1C[C@@H]1CCCNC1)[C@H]1CCCc2cccnc21` [Example 75e, (8S)—N-Methyl-N-({1-[(3R)-3-piperidinylmethyl]-1H-benzimidazol-2-yl}methyl)-5,6,7,8-tetrahydro-8-quinolinamine], the IC50 was less than 100 nM.

With `CN1CCC[C@H](Cn2c(CN(CCO)[C@H]3CCCc4cccnc43)nc3ccccc32)C1` [Example 95, 2-{[(1-{[(3S)-1-Methyl-3-piperidinyl]methyl}-1H-benzimidazol-2-yl)methyl][(8S)-5,6,7,8-tetrahydro-8-quinolinyl]amino}ethanol], the IC50 is less than 100 nM.

Regarding `CC(C)N1CCC[C@H](Cn2c(CN(C)[C@@H]3CCCc4cccnc43)nc3ccccc32)C1` [Example 83, (8R)—N-methyl-N-[(1-{[(3S)-1-(1-methylethyl)-3-piperidinyl]methyl}-1H-benzimidazol-2-yl)methyl]-5,6,7,8-tetrahydro-8-quinolinamine], the IC50 was less than 100 nM.

Regarding `CC(C)N(Cc1nc2ccccc2n1CCCN(C)C)C1CCCc2cccnc21` (stereo not drawn) [Example 60, N-({1-[3-(Dimethylamino)propyl]-1H-benzimidazol-2-yl}methyl)-N-(1-methylethyl)-5,6,7,8-tetrahydro-8-quinolinamine], the IC50 is less than 100 nM.

Regarding `CCCN/C(=N\C#N)N1CCC[C@H](Cn2c(CN(C)[C@H]3CCCc4cccnc43)nc3ccccc32)C1` [Example 90, (3R)—N-Cyano-3-{[2-({methyl[(8S)-5,6,7,8-tetrahydro-8-quinolinyl]amino}methyl)-1H-benzimidazol-1-yl]methyl}-N′-propyl-1-piperidinecarboximidamide], the IC50 lay in the range of 100 to 500 nM.
